Data: patent publication US20080187512A1, “Treatment for spinal muscular atrophy” (Academia Sinica, priority 2007, published 2008)
Where two headings read alike, the source gives them in different places.

Assays:
SMN2 = SMN2 splicing pattern, semi-quantitative RT-PCR in SMN2-NSC34 cells; assay type: cell-based, mouse; set-up: key to SMN2 splicing pattern SMN2-NSC34: −: no effect; +: effective; +++: most effective
Protocol: Cell culture and chemical/dsRNA treatment. Mouse embryonic fibroblasts (MEFs) were prepared using the standard protocol. Briefly, E13.5 day embryo was isolated; the uterine deciduas were cut away, and the yolk sac was removed. The embryo was then scraped out to remove non-fibroblastic tissue, and the head severed for genotyping. Embryo body was minced in 0.25% Trypsin-EDTA and incubated for 30 min. It was then added to MEF culture media, and the cell suspension spun for ˜5 min at 1,000 rpm in the tissue culture centrifuge to pellet cells. The supernatant was aspirated off and the cell pellet immediately resuspended in 10 mL of fresh MEF culture media. The MEFs were allowed to reach confluency so the cells could be passaged for further experiments. Cultured MEFs and SMN2-NSC34 cells were maintained in Dulbecco's modified Eagle medium (Invitrogen, Carlsbad, Calif.) containing 10% heat-inactivated fetal bovine serum (Hyclone, Logan, Utah) and 1% penicillin-streptomycin (Invitrogen, Carlsbad, Calif.) and were incubated at 37° C. in a 5% CO2 humidified atmosphere. The cells were plated the day preceding treatment with each chemical and harvested at the indicated time.
Semi-quantitative PCR/RT-PCR. The genomic DNA from E13.5 SMA embryos was extracted. A specific primer pair, SMN forward 5′-[…]-3′ (SEQ ID NO:21) and SMN backward 5′-[…]-3′ (SEQ ID NO:22), was designed for recognition of both murine Smn and human SMN2. The PCR program initially started with a 95° C. denaturation for 10 min, followed by 19 to 26 cycles of 95° C./1 min. 53° C./1.5 min, 72° C./2 min to assay the linear range for both Smn and SMN2. For RT-PCR assay, total RNA was extracted at indicated time points from SMN2-NSC34 cells with sodium vanadate, TSA, and aclarubicin treatment or with an increasing amount of Stat5A1*6 transfection by using the TRizol reagent (Invitrogen, Carlsbad, Calif.). To amplify the exon7 inclusion/exclusion form of SMN2 transcripts, RT-PCR were performed using a primer set P5P6 as previously described (15). The transcript from the mouse glyceraldehyde-3-phosphate dehydrogenase (Gapdh) gene or the β-Actin gene was amplified using the primer pairs: Gapdh forward: 5′-[…]-3′ (SEQ ID NO:23), and backward: 5′-[…]-3′ (SEQ ID NO:24) (56° C.), and β-Actin forward: 5′-[…]-3′ (SEQ ID NO:25), and backward 5′-[…]-3′ (SEQ ID NO:26) (59° C.), and this allowed control of equal amounts of template. […] The gel images were digitally captured with a CCD camera and analyzed with the Alphalmager™. […] Relative total SMN2 transcript levels were determined from Stat5A1*6 transfected SMN2-NSC34 cells in a minimum of three independent experiments. Differences in ratios were determined to be significant by an independent two-tailed t-test, with *, P<0.05, **, P<0.005, ***, p<0.001.

GRB2 = conditions: SMN2-NSC34 cells
Protocol: (§1) Western blot analysis. Cells treated by dsRNA, compounds or Stat5A1*6 transfected were detached by scraping, pelletting and rinsing in PBS. Cell pellets were collected after centrifugation and lysed on ice in modified RIPA buffer (50 mM Tris-HCl (pH7.4), 1% NP-40, 0.25% deoxycholic acid, 0.15M NaCl, 1 mM EDTA, 1 mM PMSF/NaF/sodium orthovanadate, and protease inhibitors cocktail (Roche, Mannheim, Germany) for 30 min. After centrifugation, the supernatants were collected and kept frozen at −20° C. Protein concentrations were determined by Bio-Rad protein assay method. For Western blot analysis, protein samples were boiled for 5 min and electrophoresed on 8% or 10% SDS-polyacrylamide gel in a 1× running buffer (25 mM Tris, 192 mM glycine, 3.4 mM SDS, pH 8.3) and subsequently electrotransferred to Polyvinylidene Fluoride tansfer membrane (Pall, Pensacola, Fla.) using a TE 22 mini-tank transfer unit (Amersham Biosciences, San Francisco, Calif.) at 35 volts overnight in transfer buffer (25 mM Tris, 192 mM glycine, 20% methanol, pH8.3). The blotting membranes were incubated in blocking solution (PBS, 5% non-fat milk, 0.2% Tween-20) for 1 hour at room temperature, and then incubated in the same solution with the primary antibody (human-specific SMN/1:1000; SMN/1:5000, Transduction Laboratories, Lexington, Ky.; phospho-Stat5a/b/1:1000, Cell signaling, Beverly, Mass.; phospho-Jak2/1:1000, Upstate, Lake Placid, N.Y.; Flag BioM2/1:1000, Sigma, St. Louis, MO; c-myc/1:200, Santa Cruz Biotech, Santa Cruz, Calif.; α-Tubilin/1:10000, Upstate, Lake Placid, N.Y., MO), overnight at 4° C. The membranes were washed and incubated in the blocking solution with the proper HRP-conjugated secondary antibody at 1/5000 dilution (Chemicon, Temecula, Calif.) for 1 hour at room temperature. After washing three times in PBS containing 0.1% Tween-20, the signals were visualized by autoradiography (Fuji Medical X-ray film, Fuji Photos, Tokyo) using enhanced chemi-luminescence (ECL detection system; Perkin-Elmer, Boston, Calif.). Western blot quantification was performed by scanning the auto-radiographs with a computerized densitometer. Signal intensities were determined by densitometry analysis (Fuji film LAS-1000 plus pictography) using the program Phoreticx 1D (Phoreticx International).

Jak1 (pY1022/pY1023) = conditions: SMN2-NSC34 cells
Protocol: as §1

NCK = conditions: SMN2-NSC34 cells
Protocol: as §1

PI3-Kinase = conditions: SMN2-NSC34 cells
Protocol: as §1

Stat1 (pY701) = experiment: Signaling pathway screen in SMN2-NSC34 cells; assay type: cell-based, mouse

Sodium vanadate
SMN2 splicing pattern SMN2-NSC34 (SMN2): +++ | efficiency in increasing full length SMN2 transcripts relative to the other compounds (SMN2): most efficient | treatment time after which the full length SMN2 expression level was enhanced (SMN2): 2 to 4 h | GRB2 cellular response (GRB2; 4 hrs): +/− | GRB2 cellular response (GRB2; 8 hrs): +/− | Jak1 (pY1022/pY1023) cellular response (Jak1 (pY1022/pY1023); 4 hrs): +/− | Jak1 (pY1022/pY1023) cellular response (Jak1 (pY1022/pY1023); 8 hrs): + | NCK cellular response (NCK; 4 hrs): +/− | NCK cellular response (NCK; 8 hrs): +/− | PI3-Kinase cellular response (PI3-Kinase; 4 hrs): +/− | PI3-Kinase cellular response (PI3-Kinase; 8 hrs): +/− | Stat1 (pY701) cellular response (Stat1 (pY701); 4 hrs): − | Stat1 (pY701) cellular response (Stat1 (pY701); 8 hrs): +/−
